Experimental data: the supplement of paper PMC10307832

Legend:
Assay in all cases: relative viability (nuclei count vs DMSO), 5 days (fraction); higher = more cells survive
Masitinib + Trametinib = compound: Cc1ccc(NC(=O)c2ccc(CN3CCN(C)CC3)cc2)cc1Nc1nc(-c2cccnc2)cs1 [Masitinib] + CC(=O)Nc1cccc(-n2c(=O)n(C3CC3)c(=O)c3c(Nc4ccc(I)cc4F)n(C)c(=O)c(C)c32)c1 [Trametinib] (partner 0.02 µM)
Summary of the method: (§1)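 Relative viability divides the nuclei count in treated wells by that in vehicle wells. Lung cancer cell lines were seeded in 1536-well plates, dosed by pin tool the next day, and fixed and stained after 5 days in one step with final 0.05% Triton X-100, 1% formaldehyde and 1 ug/ml Hoechst. Dosing was a single drug or a fixed anchor-drug dose plus five library-drug doses (not always all listed) in √10 steps, and values are medians of duplicate plates imaged at 4×.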

[1] = compound: CC1=CC(=CC=C1)NC2=NC(=CS2)C3=CC=NC=C3 + Cc1nc(Nc2ncc(C(=O)Nc3c(C)cccc3Cl)s2)cc(N2CCN(CCO)CC2)n1 [Dasatinib] (partner 0.075 µM)
Summary of the method: as §1

Masitinib + Pictilisib = compound: Cc1ccc(NC(=O)c2ccc(CN3CCN(C)CC3)cc2)cc1Nc1nc(-c2cccnc2)cs1 [Masitinib] + CS(=O)(=O)N1CCN(Cc2cc3nc(-c4cccc5[nH]ncc45)nc(N4CCOCC4)c3s2)CC1 [Pictilisib] (partner 1 µM)
Summary of the method: as §1

Masitinib + Foretinib = compound: Cc1ccc(NC(=O)c2ccc(CN3CCN(C)CC3)cc2)cc1Nc1nc(-c2cccnc2)cs1 [Masitinib] + COc1cc2c(Oc3ccc(NC(=O)C4(C(=O)Nc5ccc(F)cc5)CC4)cc3F)ccnc2cc1OCCCN1CCOCC1 [Foretinib] (partner 0.25 µM)
Summary of the method: as §1

Cell Line | relative viability (Masitinib + Trametinib; first compound 0.01 µM) | relative viability (Masitinib + Trametinib; first compound 0.03162 µM) | relative viability (Masitinib + Trametinib; first compound 0.1 µM) | relative viability (Masitinib + Trametinib; first compound 0.3162 µM) | relative viability (Masitinib + Trametinib; first compound 1 µM) | relative viability ([1]; first compound 0.08 µM) | relative viability ([1]; first compound 0.253 µM) | relative viability ([1]; first compound 0.8 µM) | relative viability ([1]; first compound 2.53 µM) | relative viability ([1]; first compound 8 µM) | relative viability (Masitinib + Pictilisib; first compound 0.01 µM) | relative viability (Masitinib + Pictilisib; first compound 0.03162 µM) | relative viability (Masitinib + Pictilisib; first compound 0.1 µM) | relative viability (Masitinib + Pictilisib; first compound 0.3162 µM) | relative viability (Masitinib + Pictilisib; first compound 1 µM) | relative viability (Masitinib + Foretinib; first compound 0.01 µM) | relative viability (Masitinib + Foretinib; first compound 0.03162 µM) | relative viability (Masitinib + Foretinib; first compound 0.1 µM) | relative viability (Masitinib + Foretinib; first compound 0.3162 µM) | relative viability (Masitinib + Foretinib; first compound 1 µM)
H3255 | 0.471 | 0.619 | 0.499 | 0.565 | 0.582 | 0.397 | 0.347 | 0.489 | 0.341 | 0.528 | 0.489 | 0.501 | 0.542 | 0.456 | 0.407 | 0.745 | 0.922 | 0.648 | 0.934 | 0.748
201T | 0.599 | 0.712 | 0.628 | 0.745 | 0.719 | 0.59 | 0.515 | 0.497 | 0.508 | 0.382 | 0.642 | 0.623 | 0.646 | 0.556 | 0.639 | 0.89 | 1.21 | 1.02 |  | 1.11
NCI-H2228 | 0.385 | 0.381 | 0.405 | 0.482 | 0.529 | 0.402 | 0.605 | 0.468 | 0.433 | 0.445 | 0.381 | 0.36 | 0.398 | 0.236 | 0.392 | 0.672 | 0.763 | 0.838 | 0.861 | 0.777
HOP-62 | 0.394 | 0.361 | 0.349 | 0.365 | 0.375 | 0.52 | 0.605 | 0.527 | 0.594 | 0.449 | 0.652 | 0.676 | 0.842 | 0.71 | 0.557 | 1.02 | 1.04 | 1.22 | 1.17 | 1.14
CAL-12T | 0.374 | 0.347 | 0.325 | 0.307 | 0.419 | 0.423 | 0.321 | 0.332 | 0.299 | 0.245 | 0.519 | 0.377 | 0.694 | 0.392 | 0.293 | 1.05 | 1.16 | 1.15 | 1.07 | 0.933
NCI-H596 | 0.723 | 0.691 | 0.789 | 0.678 | 0.732 | 0.501 | 0.507 | 0.584 | 0.524 | 0.435 | 0.214 | 0.345 | 0.438 | 0.385 | 0.35 | 0.859 | 0.9 | 0.947 | 0.869 | 0.891
NCI-H2085 | 0.583 | 0.534 | 0.556 | 0.514 | 0.524 | 0.241 | 0.243 | 0.241 | 0.186 | 0.243 | 0.522 | 0.455 | 0.469 | 0.396 | 0.595 | 0.851 | 0.91 | 0.919 | 1.23 | 0.878
NCI-H2023 | 0.509 | 0.448 | 0.531 | 0.518 | 0.549 | 0.456 | 0.427 | 0.434 | 0.348 | 0.338 | 0.225 | 0.248 | 0.286 | 0.191 | 0.243 | 0.786 | 0.721 | 0.745 | 0.836 | 0.73
